According to ChEMBL document CHEMBL3580597 (J Med Chem, 2015):
pIC50, pKd, pKi: −log10 of the molar value.

Experiments:
[1] = biological target: T1, Bromodomain-containing protein 2 (Homo sapiens, UniProt P25440); experiment: Binding affinity to biotinylated BRD2 BD1 (72 to 205 amino acid residues) (unknown origin) expressed in Rosetta2 DE3 cells by bio-layer interferometry method
[2] = biological target: CREB-binding protein (Homo sapiens, UniProt Q92793); experiment: Binding affinity to biotinylated CREBBP (1043 to 1159 amino acid residues) (unknown origin) expressed in Rosetta2 DE3 cells by bio-layer interferometry method
[3] = biological target: T2, ATPase family AAA domain-containing protein 2B (Homo sapiens, UniProt Q9ULI0); experiment: Binding affinity to biotinylated ATAD2B (953 to 1086 amino acid residues) (unknown origin) expressed in Rosetta2 DE3 cells by bio-layer interferometry method
T2 sequence (Q9ULI0 whole entry): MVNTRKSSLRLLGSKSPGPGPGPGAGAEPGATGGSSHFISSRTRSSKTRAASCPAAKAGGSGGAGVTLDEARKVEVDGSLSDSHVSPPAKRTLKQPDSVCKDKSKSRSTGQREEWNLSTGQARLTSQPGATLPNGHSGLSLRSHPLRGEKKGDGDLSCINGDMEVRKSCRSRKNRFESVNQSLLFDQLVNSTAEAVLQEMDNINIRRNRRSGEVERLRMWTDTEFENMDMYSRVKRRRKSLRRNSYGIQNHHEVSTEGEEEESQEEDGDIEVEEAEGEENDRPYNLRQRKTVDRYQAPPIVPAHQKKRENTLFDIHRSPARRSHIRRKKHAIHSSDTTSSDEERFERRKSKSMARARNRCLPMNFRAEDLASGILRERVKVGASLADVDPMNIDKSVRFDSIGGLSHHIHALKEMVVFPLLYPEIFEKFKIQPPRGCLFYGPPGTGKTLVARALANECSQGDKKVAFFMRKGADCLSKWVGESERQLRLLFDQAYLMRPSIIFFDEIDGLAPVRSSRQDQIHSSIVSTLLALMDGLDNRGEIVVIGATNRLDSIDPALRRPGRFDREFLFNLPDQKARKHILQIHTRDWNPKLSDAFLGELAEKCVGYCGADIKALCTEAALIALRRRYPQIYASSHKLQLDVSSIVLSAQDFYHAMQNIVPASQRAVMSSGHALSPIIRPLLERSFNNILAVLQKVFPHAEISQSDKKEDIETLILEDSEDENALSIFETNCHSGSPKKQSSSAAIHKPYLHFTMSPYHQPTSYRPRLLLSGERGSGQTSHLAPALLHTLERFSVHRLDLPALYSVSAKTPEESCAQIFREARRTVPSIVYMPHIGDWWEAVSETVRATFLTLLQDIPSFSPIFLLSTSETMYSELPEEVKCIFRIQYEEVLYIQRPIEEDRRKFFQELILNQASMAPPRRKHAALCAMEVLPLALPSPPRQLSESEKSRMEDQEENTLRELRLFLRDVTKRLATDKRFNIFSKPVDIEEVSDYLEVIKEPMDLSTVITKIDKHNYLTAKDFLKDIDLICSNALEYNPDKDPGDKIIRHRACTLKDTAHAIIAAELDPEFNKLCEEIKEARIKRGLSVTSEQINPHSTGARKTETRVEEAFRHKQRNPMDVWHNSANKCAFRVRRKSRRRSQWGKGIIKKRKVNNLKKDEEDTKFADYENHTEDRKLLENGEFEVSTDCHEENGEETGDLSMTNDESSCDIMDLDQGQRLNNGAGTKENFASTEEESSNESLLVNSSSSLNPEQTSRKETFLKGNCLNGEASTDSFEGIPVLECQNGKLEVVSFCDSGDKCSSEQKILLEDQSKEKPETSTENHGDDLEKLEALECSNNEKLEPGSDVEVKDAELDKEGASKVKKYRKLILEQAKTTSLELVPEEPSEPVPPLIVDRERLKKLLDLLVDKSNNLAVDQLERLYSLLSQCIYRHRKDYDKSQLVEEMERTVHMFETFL

[4] = biological target: Histone-lysine N-methyltransferase 2A (Homo sapiens, UniProt Q03164); experiment: Binding affinity to biotinylated MLL1 (1566 to 1784 amino acid residues) (unknown origin) expressed in Rosetta2 cells by bio-layer interferometry method
[5] = biological target: Protein polybromo-1 (Homo sapiens, UniProt Q86U86); experiment: Binding affinity to biotinylated PB1BR5 (645 to 766 amino acid residues) (unknown origin) expressed in Rosetta2 cells by bio-layer interferometry method
[6] = biological target: T3, Bromodomain-containing protein 4 (Homo sapiens, UniProt O60885); experiment: Displacement of FAM-labeled ZBA248 from BRD4 BD2 (333 to 460 amino acid residues) (unknown origin) expressed in Rosetta2 DE3 cells after 30 mins by fluorescence polarization assay
[7] = biological target: T1, Bromodomain-containing protein 2; experiment: Displacement of FAM-labeled ZBA248 from BRD2 BD1 (72 to 205 amino acid residues) (unknown origin) expressed in Rosetta2 DE3 cells after 30 mins by fluorescence polarization assay
[8] = biological target: T3, Bromodomain-containing protein 4; experiment: biochemical
[9] = biological target: T3, Bromodomain-containing protein 4; experiment: biochemical; remark: listed apart in the source

T1 sequence (P25440 whole entry, the tested form may be a part): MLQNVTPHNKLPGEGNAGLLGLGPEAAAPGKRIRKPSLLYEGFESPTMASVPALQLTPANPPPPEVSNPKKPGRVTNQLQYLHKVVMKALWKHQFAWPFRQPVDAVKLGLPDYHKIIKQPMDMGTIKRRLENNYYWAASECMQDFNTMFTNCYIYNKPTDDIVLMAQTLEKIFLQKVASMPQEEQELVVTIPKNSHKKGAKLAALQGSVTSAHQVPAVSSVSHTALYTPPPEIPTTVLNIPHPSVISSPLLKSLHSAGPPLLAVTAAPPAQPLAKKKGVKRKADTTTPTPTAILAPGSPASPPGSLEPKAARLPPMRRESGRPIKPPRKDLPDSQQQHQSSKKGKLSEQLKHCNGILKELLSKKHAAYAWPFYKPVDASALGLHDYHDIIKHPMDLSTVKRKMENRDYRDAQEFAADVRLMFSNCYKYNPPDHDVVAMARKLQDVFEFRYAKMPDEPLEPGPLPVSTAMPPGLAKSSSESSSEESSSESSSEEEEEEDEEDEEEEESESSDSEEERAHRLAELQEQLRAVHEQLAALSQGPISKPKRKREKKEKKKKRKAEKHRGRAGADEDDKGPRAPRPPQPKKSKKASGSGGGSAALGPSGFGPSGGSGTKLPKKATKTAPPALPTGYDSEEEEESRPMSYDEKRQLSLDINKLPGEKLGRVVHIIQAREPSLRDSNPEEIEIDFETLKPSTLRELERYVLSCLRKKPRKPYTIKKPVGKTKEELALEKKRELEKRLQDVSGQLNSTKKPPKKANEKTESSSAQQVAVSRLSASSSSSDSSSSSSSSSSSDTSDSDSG
Histone-lysine N-methyltransferase 2A, sequence (Q03164 1-2718 limits assumed): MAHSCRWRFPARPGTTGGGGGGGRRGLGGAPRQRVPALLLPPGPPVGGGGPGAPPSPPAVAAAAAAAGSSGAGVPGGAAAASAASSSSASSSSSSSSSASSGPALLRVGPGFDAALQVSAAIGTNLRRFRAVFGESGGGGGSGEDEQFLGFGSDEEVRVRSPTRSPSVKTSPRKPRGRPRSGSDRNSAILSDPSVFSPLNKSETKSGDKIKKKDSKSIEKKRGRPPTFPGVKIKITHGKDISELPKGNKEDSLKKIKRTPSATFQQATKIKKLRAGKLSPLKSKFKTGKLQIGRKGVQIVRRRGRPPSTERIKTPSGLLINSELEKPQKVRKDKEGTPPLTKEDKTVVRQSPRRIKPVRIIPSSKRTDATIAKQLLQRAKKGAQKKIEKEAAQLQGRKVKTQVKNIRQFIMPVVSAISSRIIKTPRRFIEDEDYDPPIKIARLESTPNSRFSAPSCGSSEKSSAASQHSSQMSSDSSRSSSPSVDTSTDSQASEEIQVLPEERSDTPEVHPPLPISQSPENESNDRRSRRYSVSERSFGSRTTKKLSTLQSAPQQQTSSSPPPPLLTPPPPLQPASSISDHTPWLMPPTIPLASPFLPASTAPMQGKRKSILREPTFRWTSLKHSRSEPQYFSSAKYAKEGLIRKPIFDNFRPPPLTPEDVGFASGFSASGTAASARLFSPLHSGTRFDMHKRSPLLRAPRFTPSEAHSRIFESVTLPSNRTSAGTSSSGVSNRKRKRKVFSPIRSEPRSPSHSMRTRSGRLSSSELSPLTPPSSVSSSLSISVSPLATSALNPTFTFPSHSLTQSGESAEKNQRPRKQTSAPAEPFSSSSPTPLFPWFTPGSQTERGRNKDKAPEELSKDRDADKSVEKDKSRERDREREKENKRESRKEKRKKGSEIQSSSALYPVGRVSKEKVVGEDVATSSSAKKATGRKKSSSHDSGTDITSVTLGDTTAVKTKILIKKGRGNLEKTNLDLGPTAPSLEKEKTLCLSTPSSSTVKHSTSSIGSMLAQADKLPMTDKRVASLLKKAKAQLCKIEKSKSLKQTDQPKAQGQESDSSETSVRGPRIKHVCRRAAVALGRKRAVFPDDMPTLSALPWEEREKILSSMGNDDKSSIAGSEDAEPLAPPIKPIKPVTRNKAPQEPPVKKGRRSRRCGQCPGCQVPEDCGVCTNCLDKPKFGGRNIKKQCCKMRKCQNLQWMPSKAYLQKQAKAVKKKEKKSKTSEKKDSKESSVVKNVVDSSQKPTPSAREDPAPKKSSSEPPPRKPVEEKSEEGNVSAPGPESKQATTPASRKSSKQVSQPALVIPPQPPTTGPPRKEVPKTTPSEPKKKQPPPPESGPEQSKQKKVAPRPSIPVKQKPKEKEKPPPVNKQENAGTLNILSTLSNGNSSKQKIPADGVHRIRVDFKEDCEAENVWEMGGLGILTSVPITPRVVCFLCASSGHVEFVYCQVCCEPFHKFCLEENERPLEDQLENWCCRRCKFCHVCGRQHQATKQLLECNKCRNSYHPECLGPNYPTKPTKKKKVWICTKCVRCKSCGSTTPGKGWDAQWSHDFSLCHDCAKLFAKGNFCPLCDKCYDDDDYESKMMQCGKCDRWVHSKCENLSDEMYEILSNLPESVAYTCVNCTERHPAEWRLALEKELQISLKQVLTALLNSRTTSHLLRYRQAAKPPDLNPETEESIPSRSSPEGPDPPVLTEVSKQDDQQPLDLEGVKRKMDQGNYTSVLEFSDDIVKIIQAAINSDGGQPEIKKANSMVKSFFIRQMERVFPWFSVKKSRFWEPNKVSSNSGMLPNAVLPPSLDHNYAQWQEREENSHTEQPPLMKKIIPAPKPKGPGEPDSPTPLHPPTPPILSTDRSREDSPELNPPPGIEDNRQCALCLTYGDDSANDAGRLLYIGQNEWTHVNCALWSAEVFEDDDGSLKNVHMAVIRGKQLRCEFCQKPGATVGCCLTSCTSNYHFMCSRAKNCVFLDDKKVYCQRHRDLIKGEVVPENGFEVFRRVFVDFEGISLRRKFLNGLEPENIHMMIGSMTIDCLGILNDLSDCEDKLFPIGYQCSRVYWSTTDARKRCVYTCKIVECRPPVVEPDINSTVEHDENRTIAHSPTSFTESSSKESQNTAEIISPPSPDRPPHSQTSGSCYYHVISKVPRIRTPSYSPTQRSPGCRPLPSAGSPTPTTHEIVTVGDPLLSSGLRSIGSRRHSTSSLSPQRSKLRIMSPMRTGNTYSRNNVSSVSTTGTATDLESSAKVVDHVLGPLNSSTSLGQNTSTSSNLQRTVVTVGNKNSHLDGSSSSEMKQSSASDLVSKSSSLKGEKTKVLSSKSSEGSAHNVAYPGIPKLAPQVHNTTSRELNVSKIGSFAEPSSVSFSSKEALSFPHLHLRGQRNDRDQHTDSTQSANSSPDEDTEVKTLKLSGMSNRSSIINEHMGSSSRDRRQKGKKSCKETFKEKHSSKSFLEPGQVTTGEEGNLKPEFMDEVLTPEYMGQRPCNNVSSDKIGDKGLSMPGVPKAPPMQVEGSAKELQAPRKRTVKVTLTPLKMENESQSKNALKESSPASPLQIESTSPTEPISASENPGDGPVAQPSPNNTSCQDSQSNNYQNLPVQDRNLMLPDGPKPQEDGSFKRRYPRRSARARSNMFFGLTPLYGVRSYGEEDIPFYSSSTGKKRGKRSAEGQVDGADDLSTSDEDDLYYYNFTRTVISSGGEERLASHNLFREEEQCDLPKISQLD
Histone-lysine N-methyltransferase 2A, sequence (Q03164 2719-3969 limits assumed): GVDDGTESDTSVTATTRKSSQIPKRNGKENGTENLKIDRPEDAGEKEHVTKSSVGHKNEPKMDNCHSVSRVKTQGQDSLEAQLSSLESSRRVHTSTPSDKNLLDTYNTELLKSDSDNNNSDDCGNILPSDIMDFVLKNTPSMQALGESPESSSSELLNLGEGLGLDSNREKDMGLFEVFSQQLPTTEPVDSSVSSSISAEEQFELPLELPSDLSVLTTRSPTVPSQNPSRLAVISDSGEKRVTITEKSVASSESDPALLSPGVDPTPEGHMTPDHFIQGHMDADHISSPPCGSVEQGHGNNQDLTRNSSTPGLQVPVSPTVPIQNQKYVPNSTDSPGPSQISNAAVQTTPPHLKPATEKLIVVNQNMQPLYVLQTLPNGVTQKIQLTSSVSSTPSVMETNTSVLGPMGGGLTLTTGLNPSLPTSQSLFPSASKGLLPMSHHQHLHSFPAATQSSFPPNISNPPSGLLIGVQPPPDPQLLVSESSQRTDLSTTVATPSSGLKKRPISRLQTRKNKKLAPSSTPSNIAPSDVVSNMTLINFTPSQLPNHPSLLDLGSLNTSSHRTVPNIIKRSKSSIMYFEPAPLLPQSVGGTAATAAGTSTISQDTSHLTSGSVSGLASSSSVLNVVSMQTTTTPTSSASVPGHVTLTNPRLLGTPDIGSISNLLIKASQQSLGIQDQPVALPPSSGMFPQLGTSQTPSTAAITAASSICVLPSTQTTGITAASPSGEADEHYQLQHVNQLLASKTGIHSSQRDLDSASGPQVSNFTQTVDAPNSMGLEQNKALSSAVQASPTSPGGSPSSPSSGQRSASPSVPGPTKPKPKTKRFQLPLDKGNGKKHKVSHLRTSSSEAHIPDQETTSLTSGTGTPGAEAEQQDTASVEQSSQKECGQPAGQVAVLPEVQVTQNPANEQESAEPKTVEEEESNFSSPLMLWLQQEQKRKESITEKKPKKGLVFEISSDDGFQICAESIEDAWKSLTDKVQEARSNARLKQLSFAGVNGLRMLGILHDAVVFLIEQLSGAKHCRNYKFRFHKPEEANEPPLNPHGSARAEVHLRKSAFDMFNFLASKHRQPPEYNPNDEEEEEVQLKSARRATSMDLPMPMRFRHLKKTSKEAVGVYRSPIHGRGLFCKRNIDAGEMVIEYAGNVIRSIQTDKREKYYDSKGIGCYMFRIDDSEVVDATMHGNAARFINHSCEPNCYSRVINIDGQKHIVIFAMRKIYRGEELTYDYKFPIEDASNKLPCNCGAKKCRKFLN

Which results are given for `COc1cc2c(cc1-c1c(C)noc1C)[nH]c1ccnc(-c3c(C4CC4)n[nH]c3C)c12`?
pKd [1]: 7.32; pKd [2]: 6.17; pKd [3]: < 5.00; pKd [4]: 5.02; pKd [5]: < 5.00; pIC50 [6]: 7.44; pKi [6]: 7.91; pKi [7]: 7.95; pKd [8]: 7.33; pKd [9]: 7.35
